The values below are quoted from earlier work in patent publication US20090304794A1, “CONTROLLED RELEASE FORMULATIONS OF PRAMIPEXOLE” (Supernus Pharmaceuticals, Inc., priority 2008, published 2009).

Where two headings read alike, the source gives them in different places.

For the molecule `CCCN[C@H]1CCc2nc(N)sc2C1` [pramipexole], the terminal elimination half-life entry (elderly volunteers) was “about 12 hours” and the terminal elimination half-life result (healthy volunteers) was “about 8 hours”. Moreover, where the note is “females versus males”, the “lower clearance rate in females than males” value is 30%. Besides, the “absolute bioavailability (BA)” value (in vivo) was “greater than 90%”.
